Data on 20 compounds can be found in US20220289753A1, “SHP2 INHIBITORS” (IRBM S.P.A., priority 2019, published 2022).

Usually pIC50 stands for −log10 of the IC50, conventionally taken in molar units.

Assay [1] addresses T1, SHP-2 enzyme (Met1-Leu525) (Homo sapiens, UniProt Q06124).
T1 construct: synthetized by Origene, Met1-Leu525, cat #TP750155; purchased Origene TP750155
T1 sequence (Q06124 1-525): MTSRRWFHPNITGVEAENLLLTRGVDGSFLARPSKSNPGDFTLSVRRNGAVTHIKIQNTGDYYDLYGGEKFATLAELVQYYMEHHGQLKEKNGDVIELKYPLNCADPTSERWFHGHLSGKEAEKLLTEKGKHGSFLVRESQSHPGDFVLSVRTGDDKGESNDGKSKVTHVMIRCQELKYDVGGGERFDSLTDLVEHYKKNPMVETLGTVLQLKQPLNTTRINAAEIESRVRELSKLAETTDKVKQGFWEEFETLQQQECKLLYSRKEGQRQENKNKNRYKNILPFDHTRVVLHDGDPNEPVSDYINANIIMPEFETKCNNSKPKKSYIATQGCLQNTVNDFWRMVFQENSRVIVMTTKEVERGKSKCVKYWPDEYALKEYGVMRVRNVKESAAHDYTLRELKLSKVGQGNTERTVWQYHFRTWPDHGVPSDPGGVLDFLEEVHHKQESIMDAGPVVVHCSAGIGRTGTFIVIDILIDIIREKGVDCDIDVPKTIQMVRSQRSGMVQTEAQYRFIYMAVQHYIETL
Kind of assay: SHP2 inhibition enzymatic assay (DiFMUP substrate, IRS1 peptide activation). The settings on record: SHP2 wt; activated by 500 nM IRS1 peptide; 75 μM DiFMUP substrate. Format: biochemical. The procedure, abridged: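 SHP-2 (Met1-Leu525, 0.5 nM final) preincubated 30 min with compounds and IRS1 activating peptide in HEPES pH 7.2 buffer with NaCl, KCl, EDTA, tween-20, 5 mM DTT. DiFMUP then added for 30 min at room temperature and fluorescence read. IC50 from four-parameter logistic fit of % inhibition.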

The subject of assay [2] is ERK phosphorylation in KYSE-520 cells. Kind of assay: Phospho-ERK cellular assay (Advanced phospho-ERK1/2 (Thr202/Tyr204) TR-FRET kit). To be noted: Homo sapiens, KYSE-520, 2 h, KYSE-520 cells, 2 h at 37° C., TR-FRET; read-out: pERK IC50. It counts as cell-based. How it is done:
Phospho-ERK Cellular Assay
ERK phosphorylation was detected using the “Advanced phospho-ERK1/2 (Thr202/Tyr204)” TR-FRET kit (Cisbio, Cat #64AERPEG/H), following the manufacturer reagents and instructions. […] After an overnight incubation, cells were treated with DMSO serial diluted compounds and incubated for 2 h at 37° C. After incubation, 2 μL/well of 4× Lysis Buffer (Cisbio 64KL1FDF), were added and incubated with cells for 30 min on gentle shaking. Finally, lysates were added with 2 μL/well of Eu cryptate (donor) and D2 (acceptor) conjugated antibodies (as provided by the Cisbio kit #64AERPEG/H) diluted 1:100 in Detection Buffer (as provided by the Cisbio kit #64AERPEG/H). Plates were then sealed and incubated at room temperature in the dark. After an overnight incubation, the TR-FRET signal was detected on a suitable reader (Envision, PerkinElmer). The lower the TR-FRET signal the higher the higher the SHP2 inhibition in cells. […] The percentage activity is fitted against the compound dilutions with a four-parameter logistic regression. The inflection point (i.e. the concentration at which half-maximal inhibition is achieved) is the IC50.
A general note: Time-resolved FRET reads energy transfer from a long-lived donor to a nearby acceptor.

Each structure is given as a SMILES string. pIC50: −log10 of the molar value.

Take `N[C@@H]1c2ccccc2CC12CCN(c1nc3nc(Sc4ccnc(N5CC(O)C5)c4Cl)cnc3[nH]1)CC2` [Example 165, (S)-1-(4-((2-(1-amino-1,3-dihydrospiro[indene-2,4′-piperidin]-1′-yl)-1H-imidazo[4,5-b]pyrazin-5-yl)thio)-3-chloropyridin-2-yl)azetidin-3-ol]: the pIC50 in assay [1] was greater than 6.30; in assay [2] it was greater than 6.00.
The like results for `Nc1nccc(Sc2cnc3[nH]c(N4CCC5(CC4)Cc4ncccc4[C@H]5N)nc3n2)c1Cl` [Example 145, (S)-1′-(5-((2-amino-3-chloropyridin-4-yl)thio)-1H-imidazo[4,5-b]pyrazin-2-yl)-5,7-dihydrospiro[cyclopenta[b]pyridine-6,4′-piperidin]-5-amine] were, in that order, greater than 6.30 and greater than 6.00.
The like results for `CC(C)(C)S(=O)(=O)N[C@@H]1c2cccnc2CC12CCN(c1nc3nc(Sc4cccnc4C(F)(F)F)cnc3[nH]1)CC2` [Example 142, (S)-2-methyl-N-(1′-(5-((2-(trifluoromethyl)pyridin-3-yl)thio)-1H-imidazo[4,5-b]pyrazin-2-yl)-5,7-dihydrospiro[cyclopenta[b]pyridine-6,4′-piperidin]-5-yl)propane-2-sulfonamide] were, in that order, 5.52 to 6.30 and less than 5.30.
With `COc1ccc2nccc(Sc3cnc4[nH]c(N5CCC6(CC5)Cc5ccccc5[C@H]6N)nc4n3)c2n1` [Example 220, (S)-1′-(5-((6-methoxy-1,5-naphthyridin-4-yl)thio)-1H-imidazo[4,5-b]pyrazin-2-yl)-1,3-dihydrospiro[indene-2,4′-piperidin]-1-amine], the figures for the pIC50 in assay [1] and in assay [2] were greater than 6.30 and 5.30 to 6.00, respectively.
Take `N[C@@H]1c2ccccc2CC12CCN(c1cc3nc(Sc4cccc(Cl)c4Cl)cnc3[nH]1)CC2` [Example 243, (S)-1′-(2-((2,3-dichlorophenyl)thio)-5H-pyrrolo[2,3-b]pyrazin-6-yl)-1,3-dihydrospiro[indene-2,4′-piperidin]-1-amine]: the values for the pIC50 in assay [1] and in assay [2] were greater than 6.30 and greater than 6.00, respectively.
Regarding `N[C@@H]1c2ccccc2CC12CCN(c1nc3ncc(Sc4ccnc5nccnc45)nc3[nH]1)CC2` [Example 194, (S)-1′-(6-(pyrido[2,3-b]pyrazin-8-ylthio)-1H-imidazo[4,5-b]pyrazin-2-yl)-1,3-dihydrospiro[indene-2,4′-piperidin]-1-amine], the pIC50 in assay [1] is greater than 6.30; in assay [2], greater than 6.00.
The like results for `COc1ncc(CN)cc1Sc1cnc2[nH]c(N3CCC4(CC3)Cc3ccccc3[C@H]4N)nc2n1` [Example 250, (1S)-1′-[5-[5-(aminomethyl)-2-methoxy-pyridin-3-yl]sulfanyl-1H-imidazo[4,5-b]pyrazin-2-yl]spiro[1,3-dihydroindene-2,4′-piperidine]-1-amine] were, in that order, less than 5.52 and 5.30 to 6.00.
The like results for `N[C@@H]1c2ccccc2CC12CCN(c1nc3nc(Sc4cccc5[nH]c(=O)cnc45)cnc3[nH]1)CC2` [Example 216, (S)-5-((2-(1-amino-1,3-dihydrospiro[indene-2,4′-piperidin]-1′-yl)-1H-imidazo[4,5-b]pyrazin-5-yl)thio)quinoxalin-2(1H)-one] were, in that order, greater than 6.30 and greater than 6.00.
The like results for `N[C@@H]1c2ncccc2OC12CCN(c1nc3nc(Sc4ccncc4Cl)cnc3[nH]1)CC2` [Example 163, (R)-1′-(5-((3-chloropyridin-4-yl)thio)-1H-imidazo[4,5-b]pyrazin-2-yl)-3H-spiro[furo[3,2-b]pyridine-2,4′-piperidin]-3-amine] were, in that order, greater than 6.30 and less than 5.30.
In the case of `N[C@@H]1c2ccccc2CC12CCN(c1nc3ncc(Sc4cccc5[nH]ccc45)nc3[nH]1)CC2` [Example 198, (S)-1′-(6-((1H-indol-4-yl)thio)-1H-imidazo[4,5-b]pyrazin-2-yl)-1,3-dihydrospiro[indene-2,4′-piperidin]-1-amine], the pIC50 was greater than 6.30 in assay [1] and greater than 6.00 in assay [2].
The like results for `N#Cc1c[nH]c2nccc(Sc3cnc4[nH]c(N5CCC6(CC5)Cc5ccccc5[C@H]6N)nc4n3)c12` [Example 240, (S)-4-((2-(1-amino-1,3-dihydrospiro[indene-2,4′-piperidin]-1′-yl)-1H-imidazo[4,5-b]pyrazin-5-yl)thio)-1H-pyrrolo[2,3-b]pyridine-3-carbonitrile] were, in that order, greater than 6.30 and 5.30 to 6.00.
The like results for `N[C@@H]1c2cc(F)c(F)cc2CC12CCN(c1nc3nc(Sc4ccnc(NC5CC5)c4Cl)cnc3[nH]1)CC2` [Example 189, (S)-1′-(5-((3-chloro-2-(cyclopropylamino)pyridin-4-yl)thio)-1H-imidazo[4,5-b]pyrazin-2-yl)-5,6-difluoro-1,3-dihydrospiro[indene-2,4′-piperidin]-1-amine] were, in that order, greater than 6.30 and greater than 6.00.
Turning to `COc1nc(N)ccc1Sc1cnc2[nH]c(N3CCC4(CC3)Cc3ccccc3[C@H]4N)nc2n1` [Example 269, (S)-1′-(5-((6-amino-2-methoxypyridin-3-yl)thio)-1H-imidazo[4,5-b]pyrazin-2-yl)-1,3-dihydrospiro[indene-2,4′-piperidin]-1-amine], the pIC50 in assay [1] is greater than 6.30; in assay [2], greater than 6.00.
The like results for `N[C@@H]1CCCC12CCN(c1nc3ncc(Sc4cccnc4C(F)(F)F)nc3[nH]1)CC2` [Example 2, (R)-8-(6-((2-(trifluoromethyl)pyridin-3-yl)thio)-1H-imidazo[4,5-b]pyrazin-2-yl)-8-azaspiro[4.5]decan-1-amine] were, in that order, greater than 6.30 and 5.30 to 6.00.
On to `Nc1nccc(Sc2cnc3nc(N4CCC5(CC4)Cc4ccc(F)cc4[C@H]5N)[nH]c3n2)c1Cl` [Example 175, (S)-1′-(6-((2-amino-3-chloropyridin-4-yl)thio)-1H-imidazo[4,5-b]pyrazin-2-yl)-6-fluoro-1,3-dihydrospiro[indene-2,4′-piperidin]-1-amine], for which the results for the pIC50 in assay [1] and in assay [2] were greater than 6.30 and greater than 6.00, respectively.
The like results for `N[C@@H]1c2ccccc2CC12CCN(c1nc3nc(Sc4cncnc4C(F)(F)F)cnc3[nH]1)CC2` [Example 156, (S)-1′-(5-((4-(trifluoromethyl)pyrimidin-5-yl)thio)-1H-imidazo[4,5-b]pyrazin-2-yl)-1,3-dihydrospiro[indene-2,4′-piperidin]-1-amine] were, in that order, greater than 6.30 and less than 5.30.
The like results for `Nc1nccc(Sc2cnc3[nH]c(N4CCC5(CC4)Cc4ncc(F)cc4[C@@H]5N)nc3n2)c1Cl` [Example 229, (R)-1′-(5-((2-amino-3-chloropyridin-4-yl)thio)-1H-imidazo[4,5-b]pyrazin-2-yl)-3-fluoro-5,7-dihydrospiro[cyclopenta[b]pyridine-6,4′-piperidin]-5-amine] were, in that order, greater than 6.30 and less than 5.30.
Take `N[C@@H]1c2ccccc2CC12CCN(c1nc3nc(Sc4cccc5c4OC(F)(F)O5)cnc3[nH]1)CC2` [Example 136, (S)-1′-(5-((2,2-difluorobenzo[d][1,3]dioxol-4-yl)thio)-1H-imidazo[4,5-b]pyrazin-2-yl)-1,3-dihydrospiro[indene-2,4′-piperidin]-1-amine]: the values for the pIC50 in assay [1] and in assay [2] were greater than 6.30 and greater than 6.00, respectively.
The like results for `N[C@@H]1c2cccnc2CC12CCN(c1nc3nc(Sc4ccncc4Cl)cnc3[nH]1)CC2` [Example 150, (S)-1′-(5-((3-chloropyridin-4-yl)thio)-1H-imidazo[4,5-b]pyrazin-2-yl)-5,7-dihydrospiro[cyclopenta[b]pyridine-6,4′-piperidin]-5-amine] were, in that order, greater than 6.30 and 5.30 to 6.00.
The like results for `Nc1nccc(Sc2cnc3[nH]c(N4CCC5(CC4)Cc4c(F)cccc4[C@H]5N)nc3n2)c1Cl` [Example 206, (S)-1′-(5-((2-amino-3-chloropyridin-4-yl)thio)-1H-imidazo[4,5-b]pyrazin-2-yl)-4-fluoro-1,3-dihydrospiro[indene-2,4′-piperidin]-1-amine] were, in that order, greater than 6.30 and greater than 6.00.
